# According to paper PMC6100082, “Pyridine-Ureas as Potential Anticancer Agents: Synthesis and In Vitro Biological Evaluation” (Molecules : A Journal of Synthetic Chemistry and Natural …, 2018):
# Assays:
# PC-3 = experiment: NCI one-dose SRB assay (Prostate); format: cell-based, human
# Protocol: (§1) The structures of all the newly prepared pyridine-ureas 8a–n were submitted to the National Cancer Institute (NCI) Developmental Therapeutic Program. Eight compounds 8b, 8d, 8e, 8i, 8j and 8l–n were selected to be examined for their in vitro growth inhibitory activity. The anticancer assays were carried out according to the protocol of the Drug Evaluation Branch, NCI, Bethesda. The selected pyridine-ureas were tested at one dose primary anticancer assay against a panel of approximately 58 cancer lines (concentration 10^−5 M). The tested human cancer cell lines emerged from nine different cancer subtypes: leukemia, colon, melanoma, ovarian, lung, CNS, renal, breast and prostate cancers. The sulforhodamine B (SRB) protein assay was adopted to estimate the cell viability and growth. The results were reported as mean-graph of the percentage growth of the treated cells, and presented as percentage growth inhibition (GI%) caused by the test compounds (Table 2).
# (§2) The anticancer assays were performed in accordance with the protocol of the Drug Evaluation Branch, NCI, Bethesda. A 48 h drug exposure protocol was used and sulforhodamine B (SRB) protein assay was applied to estimate the cell viability and growth, as reported earlier.
# DU-145 = experiment: NCI one-dose SRB assay (Prostate); format: cell-based, human
# Protocol: as §1, §2
# SNB-75 = experiment: NCI one-dose SRB assay (CNS Cancer); format: cell-based, human
# Protocol: as §1, §2
# SNB-19 = experiment: NCI one-dose SRB assay (CNS Cancer); format: cell-based, human
# Protocol: as §1, §2
# SF-268 = experiment: NCI one-dose SRB assay (CNS Cancer); format: cell-based, human
# Protocol: as §1, §2
# SF-539 = experiment: NCI one-dose SRB assay (CNS Cancer); format: cell-based, human
# Protocol: as §1, §2
# SF-295 = experiment: NCI one-dose SRB assay (CNS Cancer); format: cell-based, human
# Protocol: as §1, §2
# U251 = experiment: NCI one-dose SRB assay (CNS Cancer); format: cell-based, human
# Protocol: as §1, §2
# MCF7 = experiment: NCI one-dose SRB assay (Breast Cancer); format: cell-based, human
# Protocol: as §1, §2
# T-47D = experiment: NCI one-dose SRB assay (Breast Cancer); format: cell-based, human
# Protocol: as §1, §2
# MDA-MB-468 = experiment: NCI one-dose SRB assay (Breast Cancer); format: cell-based, human
# Protocol: as §1, §2
# HS 578T = experiment: NCI one-dose SRB assay (Breast Cancer); format: cell-based, human
# Protocol: as §1, §2
# BT-549 = experiment: NCI one-dose SRB assay (Breast Cancer); format: cell-based, human
# Protocol: as §1, §2
# MDA-MB-231 = experiment: NCI one-dose SRB assay (Breast Cancer); format: cell-based, human
# Protocol: as §1, §2
# NCI 58 cell line panel = experiment: NCI one-dose SRB assay, whole panel / subpanel summary; format: cell-based, human
# Protocol: as §1, §2
# NCI-H460 = experiment: NCI one-dose SRB assay (Non-Small Cell Lung Cancer); format: cell-based, human
# Protocol: as §1, §2
# EKVX = experiment: as above; format: cell-based, human
# Protocol: as §1, §2
# NCI-H23 = experiment: as above; format: cell-based, human
# Protocol: as §1, §2
# NCI-H322M = experiment: as above; format: cell-based, human
# Protocol: as §1, §2
# NCI-H226 = experiment: as above; format: cell-based, human
# Protocol: as §1, §2
# A549/ATCC = experiment: as above; format: cell-based, human
# Protocol: as §1, §2
# HOP-62 = experiment: as above; format: cell-based, human
# Protocol: as §1, §2
# NCI-H522 = experiment: as above; format: cell-based, human
# Protocol: as §1, §2
# HOP-92 = experiment: as above; format: cell-based, human
# Protocol: as §1, §2
# OVCAR-3 = experiment: NCI one-dose SRB assay (Ovarian Cancer); format: cell-based, human
# Protocol: as §1, §2
# OVCAR-4 = experiment: NCI one-dose SRB assay (Ovarian Cancer); format: cell-based, human
# Protocol: as §1, §2
# OVCAR-5 = experiment: NCI one-dose SRB assay (Ovarian Cancer); format: cell-based, human
# Protocol: as §1, §2
# [1] = Homo sapiens, 10 μM, read-out: Percentage growth inhibition (GI%)
smiles,measurement,setting,value
"COc1ccc(-c2ccc(NC(=O)Nc3cccc(C(F)(F)F)c3)c(C)n2)cc1 [Compound 8b, 1-(6-(4-Methoxyphenyl)-2-methylpyridin-3-yl)-3-(3-(trifluoromethyl)phenyl) Urea]",inhibition at 10 µM,"PC-3; Homo sapiens, PC-3, 10 μM, read-out: Percentage growth inhibition (GI%)",76%
same,Growth Percent,"PC-3; PC-3, 1.00E-5 Molar",24.40%
same,Growth Percent,"DU-145; DU-145, 1.00E-5 Molar",68.79%
same,inhibition at 10 µM,"DU-145; Homo sapiens, DU-145, 10 μM, read-out: Percentage growth inhibition (GI%)",32%
same,inhibition at 10 µM,"SNB-75; Homo sapiens, SNB-75, 10 μM, read-out: Percentage growth inhibition (GI%)",23%
same,Growth Percent,"SNB-75; SNB-75, 1.00E-5 Molar",77.64%
same,inhibition at 10 µM,"SNB-19; Homo sapiens, SNB-19, 10 μM, read-out: Percentage growth inhibition (GI%)",33%
same,Growth Percent,"SNB-19; SNB-19, 1.00E-5 Molar",67.81%
same,inhibition at 10 µM,"SF-268; Homo sapiens, SF-268, 10 μM, read-out: Percentage growth inhibition (GI%)",26%
same,Growth Percent,"SF-268; SF-268, 1.00E-5 Molar",74.51%
same,inhibition at 10 µM,"SF-539; Homo sapiens, SF-539, 10 μM, read-out: Percentage growth inhibition (GI%)",20%
same,Growth Percent,"SF-539; SF-539, 1.00E-5 Molar",80.84%
same,inhibition at 10 µM,"SF-295; Homo sapiens, SF-295, 10 μM, read-out: Percentage growth inhibition (GI%)",53%
same,Growth Percent,"SF-295; SF-295, 1.00E-5 Molar",47.56%
same,inhibition at 10 µM,"U251; Homo sapiens, U-251, U251, 10 μM, read-out: Percentage growth inhibition (GI%)",50%
same,Growth Percent,"U251; U251, 1.00E-5 Molar",50.16%
same,inhibition at 10 µM,"MCF7; Homo sapiens, MCF7, 10 μM, read-out: Percentage growth inhibition (GI%)",59%
same,Growth Percent,"MCF7; MCF7, 1.00E-5 Molar",41.47%
same,Growth Percent,T-47D; 1.00E-5 Molar,26.51%
same,inhibition at 10 µM,"T-47D; Homo sapiens, T47D, 10 μM, read-out: Percentage growth inhibition (GI%)",74%
same,inhibition at 10 µM,"MDA-MB-468; Homo sapiens, MDA-MB-468, 10 μM, read-out: Percentage growth inhibition (GI%)",73%
same,Growth Percent,"MDA-MB-468; MDA-MB-468, 1.00E-5 Molar",27.53%
same,Growth Percent,HS 578T; 1.00E-5 Molar,88.85%
same,inhibition at 10 µM,HS 578T; [1],12%
same,Growth Percent,"BT-549; BT-549, 1.00E-5 Molar",66.40%
same,inhibition at 10 µM,"BT-549; Homo sapiens, BT-549, 10 μM, read-out: Percentage growth inhibition (GI%)",34%
same,inhibition at 10 µM,"MDA-MB-231; Homo sapiens, MDA-MB-231, 10 μM, read-out: Percentage growth inhibition (GI%)",32%
same,Growth Percent,"MDA-MB-231; MDA-MB-231/ATCC, 1.00E-5 Molar",68.55%
same,melting point,,189 to 191 °C
same,inhibition at 10 µM,"NCI 58 cell line panel; Homo sapiens, 10 μM, one dose, read-out: mean inhibition (mean % growth inhibition over NCI 58 cell line panel)",43%
same,Mean Growth Percent,"NCI 58 cell line panel; One Dose Mean Graph, 1.00E-5 Molar",57.47%
same,inhibition at 10 µM,"NCI-H460; Homo sapiens, NCI-H460, 10 μM, read-out: Percentage growth inhibition (GI%)",52%
same,Growth Percent,"NCI-H460; NCI-H460, 1.00E-5 Molar",48.67%
same,Growth Percent,EKVX; 1.00E-5 Molar,41.42%
same,inhibition at 10 µM,EKVX; [1],59%
same,inhibition at 10 µM,"NCI-H23; Homo sapiens, NCI-H23, 10 μM, read-out: Percentage growth inhibition (GI%)",53%
same,Growth Percent,"NCI-H23; NCI-H23, 1.00E-5 Molar",47.63%
same,Growth Percent,NCI-H322M; 1.00E-5 Molar,64.44%
same,inhibition at 10 µM,NCI-H322M; [1],36%
same,inhibition at 10 µM,"NCI-H226; Homo sapiens, NCI-H226, 10 μM, read-out: Percentage growth inhibition (GI%)",42%
same,Growth Percent,"NCI-H226; NCI-H226, 1.00E-5 Molar",58.09%
same,Growth Percent,A549/ATCC; 1.00E-5 Molar,42.47%
same,inhibition at 10 µM,A549/ATCC; [1],58%
same,Growth Percent,"HOP-62; HOP-62, 1.00E-5 Molar",67.99%
same,inhibition at 10 µM,"HOP-62; Homo sapiens, HOP-62, 10 μM, read-out: Percentage growth inhibition (GI%)",33%
same,inhibition at 10 µM,"NCI-H522; Homo sapiens, NCI-H522, 10 μM, read-out: Percentage growth inhibition (GI%)",72%
same,Growth Percent,"NCI-H522; NCI-H522, 1.00E-5 Molar",28.48%
same,Growth Percent,"HOP-92; HOP-92, 1.00E-5 Molar",68.79%
same,inhibition at 10 µM,"HOP-92; Homo sapiens, HOP-92, 10 μM, read-out: Percentage growth inhibition (GI%)",32%
same,inhibition at 10 µM,"OVCAR-3; Homo sapiens, OVCAR-3, 10 μM, read-out: Percentage growth inhibition (GI%)",59%
same,Growth Percent,"OVCAR-3; OVCAR-3, 1.00E-5 Molar",41.93%
same,inhibition at 10 µM,"OVCAR-4; Homo sapiens, OVCAR-4, 10 μM, read-out: Percentage growth inhibition (GI%)",58%
same,Growth Percent,"OVCAR-4; OVCAR-4, 1.00E-5 Molar",42.94%
same,inhibition at 10 µM,"OVCAR-5; Homo sapiens, OVCAR-5, 10 μM, read-out: Percentage growth inhibition (GI%)",17%
same,Growth Percent,"OVCAR-5; OVCAR-5, 1.00E-5 Molar",83.05%
